According to ChEMBL document CHEMBL3885861, “Open TG-GATES”:

Organism: Rattus norvegicus
Experiment: Open TG-GATES - Regimen: Single
Type: toxicity, organism-based, Sprague-Dawley
Set-up: regimen Single, gender Male, age 6 weeks
Details: in vivo, po, 0 mg/kg, route gavage, dose level Control; for APTT / Bas / Eos / Fbg / Hb / Ht / Lym / MCH / MCHC / MCV / Mono / Neu / PT / Plat / RBC / Ret / WBC: tissue Blood; for KIDNEY_L / KIDNEY_R / KIDNEY_TOTAL: tissue Kidney; for LIVER: tissue Liver; for A/G / ALP / ALT / AST / BUN / CRE / Ca / Cl / DBIL / GLC / IP / K / LDH / Na / PL / RALB / TBIL / TC / TG / TP / gamma-GTP: tissue Plasma

`NC1=NC(=O)C(c2ccccc2)O1` (configuration not stated) [PEMOLINE] gave a TERMINAL_BW (3 h) of 210.7 g, an APTT (3 h) of 17.2 s and a Bas (3 h) of 0%. The Eos (3 h) was 0.8%, the Fbg (3 h) was 266 mg/dL and the Hb (3 h) was 13.1 g/dL. It also gave a Ht (3 h) of 38.2%, a Lym (3 h) of 78.2% and an MCH (3 h) of 21.6 pg. It also gave an MCHC (3 h) of 34.3%, an MCV (3 h) of 62.9 fL and a Mono (3 h) of 3.8%. The Neu (3 h) was 16.6%, the PT (3 h) was 13.4 s and the Plat (3 h) was 113.2 x10_4/uL. The RBC (3 h) was 609.4 x10_4/ul, the Ret (3 h) was 9.5% and the WBC (3 h) was 87.4 x10_2/uL. For the same compound, the KIDNEY_L (3 h) was 0.9 g, the KIDNEY_R (3 h) was 1 g and the KIDNEY_TOTAL (3 h) was 1.9 g. For the same compound, the LIVER (3 h) was 9.1 g, the A/G (3 h) was 1 and the ALP (3 h) was 1454.8 IU/L. For the same compound, the ALT (3 h) was 44.8 IU/L, the AST (3 h) was 77 IU/L and the BUN (3 h) was 9.8 mg/dL. For the same compound, the CRE (3 h) was 0.2 mg/dL, the Ca (3 h) was 10.7 mg/dL and the Cl (3 h) was 104.2 meq/L. The DBIL (3 h) was 0.014 mg/dL, the GLC (3 h) was 175.2 mg/dL and the IP (3 h) was 8.8 mg/dL. It also gave a K (3 h) of 4 meq/L, an LDH (3 h) of 69.6 IU/L and a Na (3 h) of 139.8 meq/L. It also gave a PL (3 h) of 127 mg/dL, an RALB (3 h) of 2.6 g/dL and a TBIL (3 h) of 0.044 mg/dL. The TC (3 h) was 78 mg/dL, the TG (3 h) was 40.4 mg/dL and the TP (3 h) was 5.3 g/dL. It also gave a gamma-GTP (3 h) of 1.2 IU/L, a TERMINAL_BW (6 h) of 209.5 g and an APTT (6 h) of 17.2 s. It also gave a Bas (6 h) of 0%, an Eos (6 h) of 1% and a Fbg (6 h) of 286.2 mg/dL. For the same compound, the Hb (6 h) was 13.3 g/dL, the Ht (6 h) was 39.1% and the Lym (6 h) was 77.6%. For the same compound, the MCH (6 h) was 22.4 pg, the MCHC (6 h) was 34.1% and the MCV (6 h) was 65.9 fL. It also gave a Mono (6 h) of 3%, a Neu (6 h) of 18% and a PT (6 h) of 13.2 s. The Plat (6 h) was 117 x10_4/uL, the RBC (6 h) was 594.6 x10_4/ul and the Ret (6 h) was 9.1%. The WBC (6 h) was 88.4 x10_2/uL, the KIDNEY_L (6 h) was 0.9 g and the KIDNEY_R (6 h) was 0.9 g. The KIDNEY_TOTAL (6 h) was 1.8 g, the LIVER (6 h) was 8.8 g and the A/G (6 h) was 1. For the same compound, the ALP (6 h) was 1338 IU/L, the ALT (6 h) was 41.2 IU/L and the AST (6 h) was 72.8 IU/L. It also gave a BUN (6 h) of 8.2 mg/dL, a CRE (6 h) of 0.2 mg/dL and a Ca (6 h) of 10.6 mg/dL. The Cl (6 h) was 104.4 meq/L, the DBIL (6 h) was 0.01 mg/dL and the GLC (6 h) was 173.8 mg/dL. The IP (6 h) was 9.4 mg/dL, the K (6 h) was 3.9 meq/L and the LDH (6 h) was 57.6 IU/L. For the same compound, the Na (6 h) was 140.4 meq/L, the PL (6 h) was 138.6 mg/dL and the RALB (6 h) was 2.6 g/dL. It also gave a TBIL (6 h) of 0.038 mg/dL, a TC (6 h) of 84.2 mg/dL and a TG (6 h) of 46.8 mg/dL. For the same compound, the TP (6 h) was 5.3 g/dL, the gamma-GTP (6 h) was 1.2 IU/L and the TERMINAL_BW (9 h) was 210.1 g. The APTT (9 h) was 17.2 s, the Bas (9 h) was 0% and the Eos (9 h) was 1%. The Fbg (9 h) was 293.8 mg/dL, the Hb (9 h) was 12.8 g/dL and the Ht (9 h) was 37.5%. It also gave a Lym (9 h) of 75.4%, an MCH (9 h) of 21.5 pg and an MCHC (9 h) of 34.2%. The MCV (9 h) was 62.8 fL, the Mono (9 h) was 3.2% and the Neu (9 h) was 20.2%. The PT (9 h) was 13.3 s, the Plat (9 h) was 127.3 x10_4/uL and the RBC (9 h) was 598.8 x10_4/ul. It also gave a Ret (9 h) of 9.5%, a WBC (9 h) of 89 x10_2/uL and a KIDNEY_L (9 h) of 0.9 g. For the same compound, the KIDNEY_R (9 h) was 0.9 g, the KIDNEY_TOTAL (9 h) was 1.7 g and the LIVER (9 h) was 8.1 g. The A/G (9 h) was 1, the ALP (9 h) was 1391.4 IU/L and the ALT (9 h) was 41.6 IU/L. For the same compound, the AST (9 h) was 74.8 IU/L, the BUN (9 h) was 8.2 mg/dL and the CRE (9 h) was 0.2 mg/dL. It also gave a Ca (9 h) of 10.3 mg/dL, a Cl (9 h) of 104.4 meq/L and a DBIL (9 h) of 0.01 mg/dL. It also gave a GLC (9 h) of 168.8 mg/dL, an IP (9 h) of 10.7 mg/dL and a K (9 h) of 3.8 meq/L. The LDH (9 h) was 53.8 IU/L, the Na (9 h) was 140.8 meq/L and the PL (9 h) was 121.6 mg/dL. For the same compound, the RALB (9 h) was 2.7 g/dL, the TBIL (9 h) was 0.04 mg/dL and the TC (9 h) was 74.2 mg/dL. For the same compound, the TG (9 h) was 27.6 mg/dL, the TP (9 h) was 5.3 g/dL and the gamma-GTP (9 h) was 1.6 IU/L. It also gave a TERMINAL_BW (24 h) of 216.7 g, an APTT (24 h) of 17.2 s and a Bas (24 h) of 0%. It also gave an Eos (24 h) of 1%, a Fbg (24 h) of 274.6 mg/dL and a Hb (24 h) of 12.8 g/dL. For the same compound, the Ht (24 h) was 37.7%, the Lym (24 h) was 74.2% and the MCH (24 h) was 21.8 pg. The MCHC (24 h) was 34%, the MCV (24 h) was 64.2 fL and the Mono (24 h) was 3.8%. The Neu (24 h) was 20.4%, the PT (24 h) was 13 s and the Plat (24 h) was 114.9 x10_4/uL. It also gave an RBC (24 h) of 588.4 x10_4/ul, a Ret (24 h) of 8.8% and a WBC (24 h) of 92.6 x10_2/uL. For the same compound, the KIDNEY_L (24 h) was 0.9 g, the KIDNEY_R (24 h) was 0.9 g and the KIDNEY_TOTAL (24 h) was 1.9 g. It also gave an LIVER (24 h) of 9.9 g, an A/G (24 h) of 1 and an ALP (24 h) of 1629.4 IU/L. The ALT (24 h) was 50.4 IU/L, the AST (24 h) was 79 IU/L and the BUN (24 h) was 15 mg/dL. It also gave a CRE (24 h) of 0.2 mg/dL, a Ca (24 h) of 10.7 mg/dL and a Cl (24 h) of 105 meq/L. For the same compound, the DBIL (24 h) was 0.018 mg/dL, the GLC (24 h) was 174.6 mg/dL and the IP (24 h) was 8.2 mg/dL. It also gave a K (24 h) of 4 meq/L, an LDH (24 h) of 58.8 IU/L and a Na (24 h) of 141 meq/L. It also gave a PL (24 h) of 144.6 mg/dL, an RALB (24 h) of 2.7 g/dL and a TBIL (24 h) of 0.032 mg/dL. For the same compound, the TC (24 h) was 82.6 mg/dL, the TG (24 h) was 89 mg/dL and the TP (24 h) was 5.4 g/dL. For the same compound, the gamma-GTP (24 h) was 1 IU/L.
